Measured values published in patent US20260325500A1, “METHODS AND COMPOSITIONS FOR TREATING ACUTE STRESS DISORDER” (BioXcel Therapeutics, Inc., priority 2022, published 2026).
Where a name gives a salt, the structure may show the parent alone.

Columns and labels:
[1] = tested on: motor activity (locomotion) and sedation behavior of male Swiss albino mice; experiment: Open field test, motor activity (locomotion) and sedation (Example 7); assay type: in vivo
Method: Rationale: The spontaneous locomotor activity in terms of total distance traveled is measured in open field test. Comparatively lower distance traveled would indicate either less motor activity or sedation.
Animal groups: Swiss albino male mice (6-7 weeks old; 25-40 g weight) were distributed in 10 different experimental groups with 12 […] per group as illustrated in Table
Study drugs: The test substances (Dexmedetomidine hydrochloride and latrepirdine dihydrochloride hydrate) were dissolved in 0.9% normal saline which served as the vehicle.
Study design and dosing: Mice were brought to the laboratory and allowed to acclimatize to the environment for at least 7 days. The open field test was done in lighting conditions of 40 lux light. The mice were dosed as per the grouping in Table 10. After a post dose interval of 60 minutes, 4 mice from a group were placed in the open field and the movement was tracked for a period of 30 minutes. Once the trial was over the mice were removed from the open field and the arena was cleaned. Following this, next set of 4 mice were placed in the arena and tracked.
Statistical analysis: The distance travelled for a period of 30 minutes was analyzed in bins of 5 minutes and was compared with that of the vehicle group using one-way ANOVA followed by Dunnett's test. All statistical analyses were performed using Graph pad prism software package (Version 7 or Higher) and p value below 0.05 was considered as significant.

[2] = tested on: mouse behavior (SmartCube signature); experiment: SmartCube system behavioral classification (Example 6); assay type: in vivo, Male C57/B16 mice; conditions: IP
Description: Dexmedetomidine and latrepirdine have anti-psychotic effects, when tested in the SmartCube® system (Psychogenics, Inc., Paramus, NJ; See also U.S. Pat. No. 7,580,798 incorporated herein by reference in its entirety). This system uses features derived from mouse behavioral data to first, classify mice on compound versus vehicle. This measure indicates how well the system can differentiate between a mouse on compound versus a mouse on vehicle. Secondly, by comparing the features to a proprietary reference database of behavioral feature sets that are linked to classes of marketed drugs known to treat neuro-psychiatric symptoms SmartCube® assigns a signature to the behavior. Thus, the system can be used as a model to identify both the activity and the psychiatric effect of a compound by comparing the effects of the compounds against drugs with known validated effects.
By comparing the responses of animals to known drugs, the test drug can be categorized according to its function; for example, hallucinogen, anxiogenic, analgesic, cognitive enhancer, psychostimulant, mood stabilizer, high dose anti-psychotic, anti-psychotic, sedative/hypnotic, anxiolytic, high dose antidepressant, antidepressant.
Once all features are extracted from the raw data through an automated pipeline, proprietary bioinformatics algorithms are used to decorrelate groups of features and find the combination of values that best separate different groups of interest. For each compound, at each dose, they system provides a probability that the drug is active and breaks down such putative activity into the different classes of interest.
SmartCube reference data used herein include anti-psychotics and anti-depressants tested at several dose ranges. “Anti-psychotic” versus “high dose anti-psychotic” as indicated in the legend, reflects the notion that anti-psychotics reference data is dose dependent. Anti-psychotics, when administered at higher doses, can engage additional receptor systems, and thus affect mouse behavior differently. The same applies for different doses of anti-depressants.
Animals: Male C57/B16 mice (N=12 per group) from Taconic Laboratories were used. Upon receipt, mice were group-housed in OPTI mouse ventilated cages with 4 mice per cage. Mice were acclimated to the colony room for at least one week prior to test and subsequently tested at approximately 8-9 weeks of age. All animals were examined, handled, and weighed prior to initiation of the study to assure adequate health and suitability and to minimize non-specific stress associated with manipulation.
All compounds tested were formulated in NP3 (vehicle solution): 5% Pharmasolve; 30% P3 (1:1:1 PEG200: PEG400: propylene glycol); 65% saline; pH is 5.1-6.
Test groups were: • Vehicle: NP3 • Dexmedetomidine at 0.005 and 0.010 mg/kg • Latrepirdine at 1 and 10 mg/kg • Dexmedetomidine and latrepirdine combinations (in mg/kg): 0.005/1.0; 0.005/10; 0.010/1.0; 0.010/10
Test compounds were injected intraperitoneally (IP) for 15 min before animals were placed in SmartCube for assessment.
Antipsychotic: SmartCube classifies the mouse behavior with test compound as similar to treatment with marketed anti-psychotics at therapeutically relevant doses.
High Dose Antipsychotic: SmartCube classifies the mouse behavior on test compound as similar to treatment with marketed anti-psychotics at doses that are considered as high therapeutically. High doses of anti-psychotics often cause sedation.
The results for the class analyses are presented as standardized bar charts with percentages that sum to 100 for each dose. The percentage indicates the probability the classifier can differentiate between the vehicle group and test group. The pattern indicates what class signature was assigned.

Compound	distance traveled ([1]; 1 mg/kg, 3 mg/kg and 10 mg/kg, i.p.)	locomotion and sedation ([1]; latrepirdine, open field test)	SmartCube signature ([2]; 1 and 10 mg/kg)	SmartCube total activity ([2]; latrepirdine 1.0 mg/kg) [%]	SmartCube total activity ([2]; latrepirdine 10 mg/kg) [%]
Cc1ccc2c(c1)c1c(n2CCc2ccc(C)nc2)CCN(C)C1 [latrepirdine dihydrochloride hydrate]	did not show any significant reduction in distance traveled				
Cc1ccc2c(c1)c1c(n2CCc2ccc(C)nc2)CCN(C)C1 [latrepirdine, 2,8-dimethyl-5-[2-(6-methylpyridin-3-yl)ethyl]-3,4-dihydro-1H-pyrido[4,3-b]indole]		did not cause any reduction in locomotion nor caused sedation	antipsychotic signature	20	80
